Molecules are shown by their SMILES.

As a reminder, the melting point is the temperature of the solid-liquid transition. Consider `Cc1cc(SC(C)C)c(NC(=O)CCCCCCSc2nc3cccc(C(F)(F)F)c3o2)c(SC(C)C)n1`, for which the melting point is 76 to 78 °C. The same measure for `CC(C(=O)O)c1ccc(C(=O)c2ccco2)cc1` (centres undefined): 86 to 88 °C. As for `CC12CCC3c4ccc(N)cc4CCC3C1CCC2O` (centres undefined), the melting point lay in the range of 75 to 77 °C. The same measure for `COc1cc2c(cc1OC)C1=C(CC2)NC(=O)CC1`: 270 to 271 °C; for `Cc1c(Cl)c(=O)[nH][nH]c1=O`: 305 to 310 °C.

Take `Oc1c(Cl)cc(Cn2c(=S)sc3ccccc32)cc1Cl`: the melting point fell in the range of 169 to 172 °C. As for `CC(C)(C)C(=O)Nc1cc2c(O)nc[nH]c-2n1`, the melting point was 295 °C.

On to `CC(CNC(=O)[C@@H]1CSC(=O)N1)O[N+](=O)[O-]` (some centres undefined), for which the melting point lay within 70 to 72 °C.

As to `Oc1ccc(O)c(C2(c3ccccc3)CC3CCC2C3)c1` (centres undefined), the melting point was in the range of 179 to 181 °C. The compound `CCC(=O)OCCSCC(=O)NC/C=C\COc1cc(CN2CCCCC2)ccn1` came in with a melting point of 99 to 106 °C. With `CCCn1nc2c(N)nc3ccccc3c2c1CCCc1cc(-c2cccnc2)no1` the figure was 192 to 193 °C; with `CCCn1c(=O)[nH]c2cc(Cl)cc(Cl)c2c1=O`, 223 to 234 °C. The same measure for `N#Cc1c(N2CCN(C(=O)c3cccs3)CC2)c2cc(F)cnc2[nH]c1=O`: 244 °C; for `O=C1N(Cc2ncccc2C(F)(F)F)c2ccccc2C12COc1ccc3c(c12)OCCO3` (centres undefined): 245 to 247 °C; for `CCCCCCCCCCCCNC1=NC(N2CCOCC2)=NCN1`: 117 to 118 °C. With `CCN1c2ncc(CCc3ccnc(C(=O)OC)c3)cc2C(=O)N(C)c2ccc(Cl)nc21` the figure was 149 °C; with `CCNCC(=O)N1c2ccccc2NC(=O)c2c1c(C)cn2C`, 175 to 176 °C; with `O=C1CCC(Nc2nccc(-n3nnc4ccccc43)n2)CC1`, 205 to 206 °C. Compound `CSc1cc2c(cc1C(F)(F)F)N(C(=O)Nc1cccc(C(=O)N(C)CCN(C)C)c1)CC2` had a melting point of 140 to 141 °C. With `CCC1(C)CC(=O)C(C(=O)Nc2ccc(Cl)c(Cl)c2)C(=O)C1` (centres undefined) the figure was 74 to 75 °C. With `COc1cc(OC)c2c(=O)[nH]c(-c3ccc(OCCN4CCCC4)cc3)nc2c1` the figure was 226 to 227 °C; with `COc1cc(C(=O)O)ccc1Cc1cn(CCC(N)=O)c2ccc(C(=O)NCC3CCCC3)cc12`, 129 to 131 °C; with `COc1ccc(I)c(OCC(O)CNCCc2ccc(OC)c(OC)c2)c1` (centres undefined), 83 to 88 °C. With `CCOC(=O)c1cnn(C)c1NC(=O)Nc1ccccc1` the figure was 151 to 153 °C.

On to `Cc1cccc(-c2[nH]nnc2-c2ccc3c(c2)N(CCN2CCOCC2)C(=O)CO3)n1`, for which the melting point came out at 150 °C. With `CC(C(=O)O)c1ccc(Nc2nc3ccccc3[nH]2)cc1` (centres undefined) the figure was 355 to 358 °C; with `CNc1nc(-c2cccc(-n3cccc3)c2)c2cc(OC)c(OC)cc2n1`, 199 to 201 °C; with `Cn1c(C=O)c(-c2ccc(F)cc2)c2ccccc21`, 75 to 79 °C. With `Cc1nnc(Cl)c2cc(O)ccc12`, the melting point is over 260 °C. The same measure for `Cc1ccc(NC(=O)Nc2ccc(Oc3cc(Cl)ncn3)cc2)cc1`: 217 to 219 °C; for `c1cc(-c2ccsc2)ccn1`: 138 °C; for `COc1cn(-c2ccc(-n3nccc3OC(F)F)cc2F)nc(-c2ccnn2-c2ccccc2)c1=O`: 177 to 179 °C. `CC1(C)C2CC=C(CCn3c(=O)nc(-c4ccccc4)c4cc([N+](=O)[O-])ccc43)C1C2` (centres undefined) registered a melting point of 80 to 81 °C. With `Cc1cccc2c1N(CC(=O)c1ccccc1[N+](=O)[O-])C(=O)C(NC(=O)Nc1cccc(-c3nnn[nH]3)c1)N=C2c1ccccc1F` (centres undefined), the melting point was 192 to 197 °C. With `CNC(=O)c1cccc(NC(=O)C2(c3ccccc3)CCCC2)c1` the figure was 147 °C; with `NS(=O)(=O)c1ccccc1C=C1CCOC1=O`, 178 to 180 °C. With `CCCCCCCCSc1nc(-c2ccccc2)c(-c2ccccc2)[nH]1` the figure was 133 to 134 °C; with `O=C1N=C(N2CCOCC2)SC1=Cc1cccc(-c2ccc(O)c(F)c2)c1`, 233 to 235 °C; with `ClC(Cl)(Cl)c1nnc(C=Cc2ccc(C=Cc3ccccc3)cc2)o1`, 176 to 178 °C. For the compound `CCOC(=O)COc1cccc(C(=O)Nc2ccccc2Sc2ccc(-c3nnn[nH]3)cc2)c1`, the melting point lay within 88 to 90 °C.

Compound `CCOC(=O)c1cn(Cc2ccc(OCc3ccccc3)cc2)nc1-c1ccc(F)cc1` returned a melting point of 103 to 104 °C. The same measure for `O=c1cnc2c(NC(CO)CO)nc(SCc3cccs3)nc2[nH]1`: 220 to 223 °C. With `Ic1ccc(SSc2ccc(I)cc2)cc1` the figure was 122 to 123 °C; with `CCOC(CC)c1ccc(Cl)c2nc3n(c12)CCCN3c1cnc(N(C)C)cc1C` (centres undefined), 179 to 180 °C. `Cc1noc(=O)c2ccc(N)cc12`: the melting point lay within 291 to 296 °C. With `CCOC(=O)c1c(CN(CC)CC)nc2sc3c(c2c1-c1ccc(OC)c(OC)c1)CCN(S(=O)(=O)c1ccccc1)C3`, the melting point lay in the range of 161 to 162 °C. With `CCOC(=O)c1cn(-c2ccc(F)cc2F)c2nc(OC)c(F)cc2c1=O` the figure was 190 to 192 °C.

`CCCCCCCCCCCCCCS(=O)(=O)N[C@H]1CCCNC(=O)C1` returned a melting point of 100 to 101 °C. The same measure for `CCCCCCCCCCCCCOCCCCO`: 26 to 29 °C; for `CC1=C(S(C)(=O)=O)C(c2ccc(Cl)c(Cl)c2)C2=C(CCC2=O)N1` (centres undefined): 218 to 220 °C.

For `CC1=Cc2ccsc2Sc2ccccc21`, the melting point was 70 to 71 °C. The same measure for `O=C(N1CCN(c2ccncc2Cl)CC1)N1CCN(S(=O)(=O)c2ccc(Br)cc2)CC1`: 194 to 195 °C. With `Cc1ccc(S(=O)(=O)NC(=O)NCCc2ccc(-n3c(C(C)O)nc4cc(C(F)(F)F)c(Cl)cc43)cc2)cc1` (centres undefined) the figure was 220 °C; with `CCCn1nc2c(N)nc3ccccc3c2c1CCc1ccccc1`, 175 to 176 °C. Take `COc1ccc(CCC(=O)Nc2c(C)c(C)c3c(c2C)C(c2ccc(C(C)C)cc2)CO3)cc1` (centres undefined): the melting point lay within 119 to 120 °C. The same measure for `CC1CC2C3CCC4=CC(=O)CCC4(C)C3(F)C(O)CC2(C)C1C(=O)CC#N` (centres undefined): 224 °C; for `COC(=O)c1[nH]c2c(C)ccc(C)c2c1[N+](=O)[O-]`: 193 to 194 °C. `COc1ccc(C)c(NC(=O)CC23CC4CC(CC(C4)C2)C3)c1` came in with a melting point of 147 °C. The compound `CCCCc1nc(C(C)(C)O)c(C(=O)O)n1Cc1ccc(-c2ccccc2C(=O)OC(C)(C)C)cc1` displayed a melting point of 158 to 159 °C. With `CCCCc1nc2c(N)nc3cccnc3c2n1CCCC(C)=NOC` the figure was 132 to 134 °C.

As to `CC(/C=C/c1ccsc1-c1cc2c(cc1C)C(C)(C)CCC2(C)C)=C\C(=O)O`, the melting point was in the range of 194 to 195 °C. The same measure for `Cc1ccc2c(c1)c(N1CCN(C(=O)c3ccco3)CC1)c(C#N)c(=O)n2C`: 231 °C; for `CCOc1cc(Cl)c2cc(F)c(F)c(F)c2n1`: 45 °C. With `CCOC(=O)c1nnn(-c2ccc(C3=NNC(=O)NC3C)cc2)c1C(=O)OCC` (centres undefined) the figure was 156 to 158 °C; with `COc1cc(N)c2cc[nH]c2c1`, 83 to 86 °C; with `CN(C)c1ccc([N+](=O)[O-])c(C#N)c1`, 174 to 175 °C.

Turning to `C[C@H](OC(=O)CCC(=O)O[C@@H](C)C(=O)O)C(=O)O`, the melting point was 59 to 61 °C. The same measure for `COCC(c1cc(C)ccc1C)S(=O)(=O)c1ccccn1` (centres undefined): 91 to 93 °C; for `CN1CCN(c2cccc3c2C[C@H](NC(=O)c2ccc(C4CCCCC4)cc2)CC3)CC1`: 224 to 226 °C; for `CCOC(=O)c1cccc2c1Nc1ccc(C(=O)c3ccccc3)cc1N2`: 175 to 177 °C. With `COc1cc2cc3c(Nc4ccc(Sc5nccn5C)c(Cl)c4)c(C#N)cnc3cc2cc1O` the figure was over 300 °C; with `Cc1cc(Cl)c2c(c1)C(=O)N(C(C)(C)C)CC(=O)N2`, 151 to 152 °C; with `COc1cc([N+](=O)[O-])c(C)cc1Br`, 91 to 92 °C. With `CCCCCCCCCCCCCCCCOc1ccccc1-c1ccccc1` the figure was 35 to 37 °C.

As for `Cc1ccc(-c2c3n(c(=O)c4ncccc24)CCCN(Cc2cc(C(F)(F)F)cc(C(F)(F)F)c2)C3=O)cc1`, the melting point was in the range of 194 to 195 °C. The same measure for `COC(=O)C(=CNC1CC1)C(=O)C=Cc1ccc(OC)cc1`: 125 to 127 °C; for `CCN(CC)CCNC(=O)N1CCCC(S(=O)(=O)c2ccc(Cl)cc2)C1` (centres undefined): 141 to 142 °C; for `Cc1cn([C@H]2C=C[C@@H](O)C2)c(=O)nc1N` (racemic): 190 to 192 °C.

Compound `CC(C)(C)OC(=O)Nc1ccc(C#Cc2cccc(C#Cc3ccc(NC(=O)OC(C)(C)C)cc3)c2C(=O)O)cc1` returned a melting point of 118 °C. `N#CC(Nc1ccc2ccccc2c1)c1c(Cl)cccc1Cl` (centres undefined) returned a melting point of 94.8 °C. With `O=C1NC(O)c2cccn2-c2sccc21` (centres undefined) the figure was 166 °C. The same measure for `CCCOc1cccc(C2(c3cccs3)N=C(N)N(C)C2=O)c1` (centres undefined): 79 to 81 °C. With `CCOc1cc2c(Nc3cc(OC)c(Cl)cc3Cl)c(C#N)cnc2cc1OCCOC` the figure was 215 to 217 °C; with `Nc1ccc(CC(=O)O)cc1Br`, 139 to 140 °C; with `CSc1sc(C(=O)N2CCCC2)c2c1-c1oncc1C(C)(C)C2`, 114 to 116 °C. On to `COc1ccc(N2CCN(c3c(C)c(C)c4c(c3C)C(O)(C3CCCCC3)C(C)(C)O4)CC2)cc1` (centres undefined), for which the melting point lay within 166 to 167 °C.

On to `Nc1n[nH]c2cc(C(F)(F)F)ccc12`, for which the melting point lay in the range of 168 to 169 °C.

As for `O=C(OCCN1CCCCCC1)c1ccccc1Nc1ccnc2cc(C(F)(F)F)ccc12`, the melting point lay within 72 to 75 °C. The same measure for `CCCC(C)S(=O)(=O)Nc1ccc(C(=O)CN2CCN(c3ccncc3)CC2)cc1` (centres undefined): 101 to 103 °C.

(Values after a melting point compilation (Tetko et al.; mined from patent text by program, amines drawn as free bases though some values may be those of a salt).)
